In patent publication US4235912A, “Biologically active new 8β-hydrazinomethyl-ergoline derivatives and a process for the preparation thereof” (Richter Gedeon Vegyeszeti Gyar Rt, priority 1978, dated 1980):
Entries after “also recorded” stand apart in the source; their conditions may differ.

What was measured:
[1] = tested on: serotonine-induced oedema; experiment: antiserotonine effect in vivo: inhibition of serotonine-induced plantar oedema; parameters: species or system rat; conditions: for ED50: Rattus norvegicus, 50 μg serotonine into plantar region of rats
serotonine receptors = target: T1, serotonine receptors (Rattus norvegicus, UniProt P14842); experiment: antiserotonine effect in vitro on isolated rat uterus sensitized with diethylstibestrol
T1 construct: isolated rat uterus sensitized with diethylstibestrol; from tissue; host or cells: isolated rat uterus, sensitized with diethylstilbestrol (printed 'diethylstibestrol')
T1 sequence (P14842 whole entry): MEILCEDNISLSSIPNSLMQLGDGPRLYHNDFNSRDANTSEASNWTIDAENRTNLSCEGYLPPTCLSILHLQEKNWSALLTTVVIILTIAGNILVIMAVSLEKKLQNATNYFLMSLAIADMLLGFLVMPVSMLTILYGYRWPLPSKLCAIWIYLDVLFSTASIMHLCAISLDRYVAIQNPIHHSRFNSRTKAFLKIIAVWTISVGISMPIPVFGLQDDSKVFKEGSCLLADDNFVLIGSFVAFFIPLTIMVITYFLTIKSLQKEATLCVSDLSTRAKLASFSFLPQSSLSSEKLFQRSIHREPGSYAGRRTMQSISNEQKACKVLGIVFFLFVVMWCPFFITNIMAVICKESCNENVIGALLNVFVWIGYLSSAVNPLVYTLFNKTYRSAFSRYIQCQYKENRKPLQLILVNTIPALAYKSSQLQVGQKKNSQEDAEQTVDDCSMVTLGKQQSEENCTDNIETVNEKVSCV

[2] = tested on: reserpine-induced depression; experiment: antidepressant activity: reserpine-induced depression, maximum increase in body temperature; format: in vivo; conditions: mice
Protocol: The new 8β-hydrazinomethyl-ergoline derivatives show antidepressant effects as tested on mice suffering from reserpine-induced depression. An intraperitoneal dosage of 5 mg/kg of reserpine was applied to induce depression. 18 hours later the body temperature of the animals was measured, 30 mg/kg of the compound under examination were administered intraperitoneally into the animals, and the body temperature of the animals was measured hourly for 5 hours. The maximum increase in temperature (i.e. the maximum body temperature measured after administering the compound minus the initial value) was considered as the measure of the antidepressant activity. In these tests Imipramine was used as a reference substance.

| SMILES | ED50 ([1]; po) [mg/kg] | ED50 ([1]; sc) [mg/kg] | IC50 (serotonine receptors) [nM] | inhibition of serotonine-induced oedema, in words ([1]; parenteral and oral administration) | antidepressant activity, in words [2] |
| --- | --- | --- | --- | --- | --- |
| CC(=O)NNC[C@@H]1C[C@@H]2c3cccc4[nH]cc(c34)C[C@H]2N(C)C1 [Example 4, 6-Methyl-8β-([N'-acetyl-hydrazino]-methyl)-ergoline] | 3 | 0.3 |  |  |  |
| CN(C)C(=O)NNC[C@@H]1C[C@@H]2c3cccc4[nH]cc(c34)C[C@H]2N(C)C1 [Example 6, 6-Methyl-8β-([N'-dimethylcarbamoyl-hydrazino]-methyl)-ergoline] | 3 | 0.05 |  |  |  |
| CC(=O)NNC[C@@H]1C[C@@H]2c3cccc4c3c(cn4C)C[C@H]2N(C)C1 [Example 7, 1,6-Dimethyl-8β-([N'-acetyl-hydrazino]-methyl)-ergoline] | 3 to 10 | 0.03 |  |  |  |
| CN(C)C(=O)NNC[C@@H]1C=C2c3cccc4[nH]cc(c34)C[C@H]2N(C)C1 [Example 8, 6-Methyl-8β-([N'-dimethylcarbamoyl-hydrazino]-methyl)-ergol-9-ene] | 3 | 0.16 | 2.95 |  |  |
| CC(=O)NNC[C@@H]1C=C2c3cccc4[nH]cc(c34)C[C@H]2N(C)C1 [Example 9, 6-Methyl-8β-([N'-acetyl-hydrazino]-methyl)-ergol-9-ene] | 0.78 | 0.055 | 3.22 | outstandingly effective |  |
| CNC(=S)NNC[C@@H]1C=C2c3cccc4[nH]cc(c34)C[C@H]2N(C)C1 [Example 14, 6-Methyl-8β-([N'-methylthiocarbamoyl-hydrazino]-methyl)-ergol-9-ene] |  |  |  |  | outstandingly effective; also recorded: superior to that of Imipramine |
| CC[C@@H](CO)NC(=O)[C@@H]1C=C2c3cccc4c3c(cn4C)C[C@H]2N(C)C1 [Methysergide, 1-methyl lysergic acid butanolamide, reference compound] | 0.64 | 0.026 |  |  |  |
